Source: ChEMBL document CHEMBL1134723, “Synthesis and evaluation of the sunflower derived trypsin inhibitor as a potent inhibitor of the type II transmembrane serine protease, matriptase” (Bioorg Med Chem Lett, 2001)

Target: Prothrombin (Bos taurus, UniProt P00735)
Assay: Compound was tested for inhibition of bovine Thrombin

## CC[C@H](C)[C@@H]1NC(=O)[C@@H]2CCCN2C(=O)[C@@H]2CCCN2C(=O)[C@H]([C@@H](C)CC)NC(=O)[C@H](CO)NC(=O)[C@H](CCCCN)NC(=O)[C@H]([C@@H](C)O)NC(=O)[C@@H]2CSSC[C@H](NC1=O)C(=O)N[C@@H](Cc1ccccc1)C(=O)N1CCC[C@@H]1C(=O)N[C@@H](CC(=O)O)C(=O)NCC(=O)N[C@@H](CCCN=C(N)N)C(=O)N2
  Ki: 5.05 µM
